Patent publication US20050054620A1, “Paricalcitol as a chemotherapeutic agent” (priority 2003, published 2005)

Experiments:
[1] = system: HT-29 human colon cancer tumors; assay: HT-29 tumors growing in nude mice; assay type: in vivo; conditions: 100 ng/mouse intraperitoneally 3 days a week, vs diluant control
Experimental: HT-29 cells were bilaterally injected subcutaneously into nude mice, forming two tumors per mouse. The mice were divided randomly into control and experimental groups. […] In FIG. 5A, tumor volumes were measured every week. The mean volume±SD of 10 tumors in each group is shown. […] In FIG. 5B, After 4 weeks of therapy, tumors were removed from each group and weighed. […] For the mouse studies, BNX nu/nu nude mice at 8 weeks of age were purchased from Harlan Sprangue Dawley, Inc. (Indianapolis, Ind.) and their care was in accord with the guidelines of Cedars-Sinai Research Institute. They were maintained in pathogen-free conditions with irradiated chow. […] The mice were blindly randomized to the experimental and control groups. Treatment was started on the day after the injection of […] cells and continued for 6 weeks. […] Tumor sizes were measured every week and calculated by the formula: A (length)×B (width)×C (height)×0.5236. […] All mice were euthanized at the end of the study, and the tumors were fixed in 10% neutral buffered formalin and embedded in paraffin for histological analysis. The data were analyzed by Student's t test.

RPMI-8226 myeloma cells = conditions: 4 days exposure
[2] = Serum calcium in tumor-bearing nude mice; assay type: in vivo; conditions: 100 ng/mouse i.p. 3 days a week, after 4 weeks; control 9.5±0.4, not significantly different (p=0.17)
Experimental: For the mouse studies, BNX nu/nu nude mice at 8 weeks of age were purchased from Harlan Sprangue Dawley, Inc. (Indianapolis, Ind.) and their care was in accord with the guidelines of Cedars-Sinai Research Institute. They were maintained in pathogen-free conditions with irradiated chow. A total of 1×10^6 HT-29 cells in 0.1 ml of Matrigel (Collaborative Biological Products, Bedford, Mass.) were injected s.c. into bilateral flanks of each mouse, resulting in the formation of two tumors per mouse. The mice were blindly randomized to the experimental and control groups. Treatment was started on the day after the injection of […] cells and continued for 6 weeks. The control mice (five) received diluant only and the experimental mice (five) received paricalcitol [100 ng/day, intraperitoneally, 3 days per week (M,W,F)]. Tumor sizes were measured every week and calculated by the formula: A (length)×B (width)×C (height)×0.5236. After 4 weeks, blood was collected for serum calcium. All mice were euthanized at the end of the study, and the tumors were fixed in 10% neutral buffered formalin and embedded in paraffin for histological analysis. The data were analyzed by Student's t test.
To measure the serum calcium levels in mice, Sigma Diagnostics calcium reagent (Sigma, MO) containing o-cresolphthalein, which complexes with calcium to form a purple colored complex, was used.

24-hydroxylase mRNA = assay: RT-PCR of 24-hydroxylase mRNA, spleen mononuclear cells of wild type mice; assay type: cell-based; conditions: 10^−8 M
Experimental: In FIG. 6B, HT-29 colon cancer cells were treated with paricalcitol (10^−7M) for 0, 6, 12 or 24 hrs and RNA was harvested. Expression of 24 hydroxylase mRNA was analysed by RT-PCR. The amounts of mRNA were normalized by comparison to 18S RNA. In FIG. 6C, mononuclear cells extracted from spleens of either wild type or VDR knock-out mice were treated with paricalcitol (10^−8M) for either 12 or 24 hrs, and RNA was harvested. Expression of 24 hydroxylase mRNA was analysed by RT-PCR. The amounts of mRNA were normalized by comparison to 18S RNA. For the PCR analysis, RNA extraction and reverse transcription were done by TRIzole (Invitrogen, Carlsbad, Calif.) and reverse transcriptase (Promega, Madison, Wis.). A twenty-microliter volume of cDNA was prepared from 1 μg of RNA. cDNAs were amplified by PCR with specific primers for 24-hydroxylase and 18S. The cycle number was 25 for 18S and 32 for 24-hydroxylase. […] The VDR KO Mouse and Colony-Forming Assay was performed as follows. VDR KO mice were generated and genotypes were determined by Southern Blot Analysis as described previously (O'Kelly et al., supra, 2002). For experiments using VDR KO mice, their wild-type (WT) littermates were used as controls. Mice were killed by cervical neck dislocation. […] Colonies were counted after 2 weeks. […]

ARH-77 myeloma cells = assay: MTT assay; assay type: cell-based, human
NCI-H929 cells = assay: Western blot of cell lysates; assay type: cell-based, human
Experimental: Western blot analysis was used to determine the levels of proteins involved in cell cycle and differentiation. […] After centrifugation at 15,000×g for 15 min at 4° C., the suspension was collected. Protein concentrations were quantitated using the Bio-Rad assay (Bio-Rad Labolatories, Hercules, Calif.). […] The blots were developed using the Supersignal West Pico Chemiluminescent Substrate Kit (Pierce, Rockford, Ill.). In FIG. 3C, NCI-H929 cells were treated with either paricalcitol (10^−7M) or 1,25(OH)2D3 (10^−7M) and cell lysates were prepared after 72 hrs. Cell lysates were used for Western blot analysis and probed sequentially with antibodies to p27KIP1, Bcl-2 and Bax. Control cells were treated with vehicle alone. Amount of protein was normalized by comparison to the amount of GAPDH. […] The Bcl-2 and Bax antibodies were obtained from Santa Cruz Biotechnology Inc., Santa Cruz, Calif.

In the case of `C[C@H](/C=C/[C@H](C)C(C)(C)O)[C@H]1CC[C@H]2/C(=C/C=C3C[C@@H](O)C[C@H](O)C3)CCC[C@]12C` [paricalcitol, 19-nor-1,25, (OH)2D3], the mean tumor weights ([1]; after 4 weeks, p=0.0004) is reported as “significantly suppressed”, the “growth of colon cancer tumors (tumor volumes)” value ([1]; p=0.03) is reported as “significantly suppressed” and the antiproliferative effect (RPMI-8226 myeloma cells) is reported as “somewhat less than the effect on NCI-H929 cells”. For the same compound, the serum calcium levels [2] was 10.2 ± 0.7 mg/dL, the “time within which 24-hydroxylase mRNA expression was induced” value (24-hydroxylase mRNA) was ≤ 12 h and the antiproliferative effect (ARH-77 myeloma cells) was “somewhat less than the effect on NCI-H929 cells”. For the same compound, the “expression of Bcl-2 and p27^KIP1” value (NCI-H929 cells; 0.01 μM each, 3 days) was “down-regulated”, the “decrease of Bcl-2 protein level” value (NCI-H929 cells; 10^−7M, 72 hrs) was “about 40%” and the “effect on levels of Bax” value (NCI-H929 cells; 10^−7M, 72 hrs) was “did not affect”. For the same compound, the “effect on levels of p21WAF1” value (NCI-H929 cells; 10^−7M, 96 hrs) was “little effect” and the “increase of p27KIP1 expression” value (NCI-H929 cells; 10^−7M, 96 hrs) was “about 3 fold”.
